Source: PubChem BioAssay (NCI)
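Method: 48-hour compound exposure of cells in 96-well plates, five concentrations, linear interpolation of endpoints. TGI: concentration producing complete growth inhibition.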 Where a SMILES comes first, the peptide text is derived from it. The star is where a group is joined. Boc = CC(C)(C)OC(=O)*; Bz = O=C(c1ccccc1)*

Key:
Assay in all cases: inhibition of tumour cell growth, NCI panel, 48 h
SK-MEL-5 melanoma = tested on: SK-MEL-5 melanoma
NCI-H522 lung = tested on: NCI-H522 lung
MDA-MB-231 breast = tested on: MDA-MB-231 breast
MOLT-4 leukemia = tested on: MOLT-4 leukemia
U251 CNS = tested on: U251 CNS
SN12C renal = tested on: SN12C renal
SF-268 CNS = tested on: SF-268 CNS
SK-OV-3 ovarian = tested on: SK-OV-3 ovarian
786-0 renal = tested on: 786-0 renal
SK-MEL-2 melanoma = tested on: SK-MEL-2 melanoma
NCI-H226 lung = tested on: NCI-H226 lung
SK-MEL-28 melanoma = tested on: SK-MEL-28 melanoma
OVCAR-8 ovarian = tested on: OVCAR-8 ovarian
MDA-MB-435 = tested on: MDA-MB-435
MDA-N = tested on: MDA-N
IGROV1 ovarian = tested on: IGROV1 ovarian
NCI-H23 lung = tested on: NCI-H23 lung
SNB-19 CNS = tested on: SNB-19 CNS
RXF 393 renal = tested on: RXF 393 renal
K-562 leukemia = tested on: K-562 leukemia

Structure (SMILES) | TGI (SK-MEL-5 melanoma) [µM] | TGI (NCI-H522 lung) [µM] | TGI (MDA-MB-231 breast) [µM] | TGI (MOLT-4 leukemia) [µM] | TGI (U251 CNS) [µM] | TGI (SN12C renal) [µM] | TGI (SF-268 CNS) [µM] | TGI (SK-OV-3 ovarian) [µM] | TGI (786-0 renal) [µM] | TGI (SK-MEL-2 melanoma) [µM] | TGI (NCI-H226 lung) [µM] | TGI (SK-MEL-28 melanoma) [µM] | TGI (OVCAR-8 ovarian) [µM] | TGI (MDA-MB-435) [µM] | TGI (MDA-N) [µM] | TGI (IGROV1 ovarian) [µM] | TGI (NCI-H23 lung) [µM] | TGI (SNB-19 CNS) [µM] | TGI (RXF 393 renal) [µM] | TGI (K-562 leukemia) [µM]
O=P1(C(O)/C=C/c2ccccc2)N(Cc2ccccc2)[C@H](c2ccccc2)[C@@H](c2ccccc2)N1Cc1ccccc1 (stereo not given in full) | 41.2 | 59.2 | 69.7 | > 100 | > 100 | > 100 | > 100 | > 81.8 | > 100 | 41.5 | > 100 | > 100 | > 55.1 | > 93.3 | > 100 | > 44.6 | > 59.2 | > 100 | > 100 | > 80.6
CCOC(=O)c1c2c3c(cccc3[nH]c1=O)Sc1ncccc1-2 | 24 | 83.8 | > 100 | 68.5 | 67.3 | > 100 | > 100 | > 100 | > 100 | > 100 | 66.5 | > 100 | > 100 | > 100 | > 100 | 61 | 86.3 | > 100 | 94.9 | > 100
CC(=O)OC1=c2ccccc2=C(O)C2C1C=NN2C(C)=O (stereo not given) | > 100 | > 100 | > 100 | > 100 | > 100 | > 100 | > 100 | > 100 | > 100 | > 100 | > 100 | > 100 | > 100 | > 100 | > 100 | > 100 | > 100 | > 100 | > 100 | > 100
CC(NC(=O)C(Cc1ccc(OC(=O)c2ccccc2)cc1)NC(=O)OC(C)(C)C)C(=O)NC(Cc1ccccc1)C(=O)NCC(N)=O (stereo not given) (Boc-Y(Bz)AFG-NH2; configuration not given here) | 81.7 | 42.6 | 36.5 | > 100 | 35.1 | 42 | 43 | 39.4 | 43.5 | 35.6 | 51 | > 100 | 58.8 | 47.4 | 79.4 | 40.7 | 45.9 | 36.5 | 46.4 | 57.4
CO/N=C(\C)c1ccc(Nc2c3ccccc3nc3occc23)cc1 | 6.53 | 0.311 | 10.2 | 33.5 | 10.9 | 22.6 | 18.6 | 17.2 | 6.67 | 1.94 | 28.5 | 8.62 | 14.8 | 0.224 | 0.379 | 12.4 | 26.4 | 45.1 | 0.877 | 37.3
